Data taken from article PMC4177084 (Journal of Thyroid Research, 2014).

How the values were obtained:
[1] = tested on: FGFR1 and its downstream effectors (FRS2, MEK, ERK); experiment: Western blot of FGFR1 signaling in bFGF-stimulated RO82-W-1 cells; conditions: 1 h treatment, then bFGF 20 ng/mL and heparin 10 min
JAK2 = target: T1, JAK2 (Homo sapiens, UniProt O60674); experiment: Cell free kinase inhibition assay; format: biochemical
T1 construct: purchased Carna Biosciences, Inc. (Kobe, Japan)

p70S6K = target: T2, p70S6K (Homo sapiens, UniProt P23443); experiment: Cell free kinase inhibition assay; format: biochemical
T2 construct: purchased Carna Biosciences, Inc. (Kobe, Japan)

MET = target: T3, MET (Homo sapiens, UniProt P08581); experiment: Cell free kinase inhibition assay; format: biochemical
T3 construct: purchased Carna Biosciences, Inc. (Kobe, Japan)

CDK2/CycE1 = target: T4, CDK2/CycE1 (Homo sapiens, UniProt P24941); experiment: Cell free kinase inhibition assay; format: biochemical
T4 construct: purchased Carna Biosciences, Inc. (Kobe, Japan)

FGFR4 = target: T5, FGFR4 (Homo sapiens, UniProt P22455); experiment: Cell free kinase inhibition assay; format: biochemical
T5 construct: purchased Carna Biosciences, Inc. (Kobe, Japan)

RAF1 = target: T6, RAF1 (Homo sapiens, UniProt P04049); experiment: Cell free kinase inhibition assay; format: biochemical
T6 construct: purchased Carna Biosciences, Inc. (Kobe, Japan)
T6 sequence (P04049 whole entry): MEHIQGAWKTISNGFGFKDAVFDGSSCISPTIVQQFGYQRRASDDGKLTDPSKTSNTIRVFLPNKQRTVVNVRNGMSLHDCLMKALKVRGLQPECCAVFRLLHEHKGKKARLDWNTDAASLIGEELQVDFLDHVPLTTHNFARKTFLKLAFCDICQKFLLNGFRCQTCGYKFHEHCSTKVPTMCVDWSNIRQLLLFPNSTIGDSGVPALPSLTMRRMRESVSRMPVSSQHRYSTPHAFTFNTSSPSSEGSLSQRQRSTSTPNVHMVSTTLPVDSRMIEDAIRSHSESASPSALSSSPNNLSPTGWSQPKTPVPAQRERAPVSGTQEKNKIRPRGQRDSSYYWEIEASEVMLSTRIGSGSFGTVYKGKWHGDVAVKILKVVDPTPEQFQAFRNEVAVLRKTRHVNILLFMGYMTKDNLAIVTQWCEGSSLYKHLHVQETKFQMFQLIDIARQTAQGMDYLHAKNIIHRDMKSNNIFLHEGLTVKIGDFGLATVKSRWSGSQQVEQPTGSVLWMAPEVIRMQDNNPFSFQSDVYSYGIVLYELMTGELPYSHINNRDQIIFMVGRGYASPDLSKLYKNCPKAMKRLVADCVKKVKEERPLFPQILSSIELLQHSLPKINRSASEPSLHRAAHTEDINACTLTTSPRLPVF

Nthy-ori 3-1 cells = experiment: Antiproliferation assay (WST-8); format: cell-based, human; conditions: Homo sapiens, 72 h; Nthy-ori 3-1 (normal thyroid), antiproliferative, 3 days
INSR = target: T7, INSR (Homo sapiens, UniProt P06213); experiment: Cell free kinase inhibition assay; format: biochemical
T7 construct: purchased Carna Biosciences, Inc. (Kobe, Japan)
T7 sequence (P06213 28-1382): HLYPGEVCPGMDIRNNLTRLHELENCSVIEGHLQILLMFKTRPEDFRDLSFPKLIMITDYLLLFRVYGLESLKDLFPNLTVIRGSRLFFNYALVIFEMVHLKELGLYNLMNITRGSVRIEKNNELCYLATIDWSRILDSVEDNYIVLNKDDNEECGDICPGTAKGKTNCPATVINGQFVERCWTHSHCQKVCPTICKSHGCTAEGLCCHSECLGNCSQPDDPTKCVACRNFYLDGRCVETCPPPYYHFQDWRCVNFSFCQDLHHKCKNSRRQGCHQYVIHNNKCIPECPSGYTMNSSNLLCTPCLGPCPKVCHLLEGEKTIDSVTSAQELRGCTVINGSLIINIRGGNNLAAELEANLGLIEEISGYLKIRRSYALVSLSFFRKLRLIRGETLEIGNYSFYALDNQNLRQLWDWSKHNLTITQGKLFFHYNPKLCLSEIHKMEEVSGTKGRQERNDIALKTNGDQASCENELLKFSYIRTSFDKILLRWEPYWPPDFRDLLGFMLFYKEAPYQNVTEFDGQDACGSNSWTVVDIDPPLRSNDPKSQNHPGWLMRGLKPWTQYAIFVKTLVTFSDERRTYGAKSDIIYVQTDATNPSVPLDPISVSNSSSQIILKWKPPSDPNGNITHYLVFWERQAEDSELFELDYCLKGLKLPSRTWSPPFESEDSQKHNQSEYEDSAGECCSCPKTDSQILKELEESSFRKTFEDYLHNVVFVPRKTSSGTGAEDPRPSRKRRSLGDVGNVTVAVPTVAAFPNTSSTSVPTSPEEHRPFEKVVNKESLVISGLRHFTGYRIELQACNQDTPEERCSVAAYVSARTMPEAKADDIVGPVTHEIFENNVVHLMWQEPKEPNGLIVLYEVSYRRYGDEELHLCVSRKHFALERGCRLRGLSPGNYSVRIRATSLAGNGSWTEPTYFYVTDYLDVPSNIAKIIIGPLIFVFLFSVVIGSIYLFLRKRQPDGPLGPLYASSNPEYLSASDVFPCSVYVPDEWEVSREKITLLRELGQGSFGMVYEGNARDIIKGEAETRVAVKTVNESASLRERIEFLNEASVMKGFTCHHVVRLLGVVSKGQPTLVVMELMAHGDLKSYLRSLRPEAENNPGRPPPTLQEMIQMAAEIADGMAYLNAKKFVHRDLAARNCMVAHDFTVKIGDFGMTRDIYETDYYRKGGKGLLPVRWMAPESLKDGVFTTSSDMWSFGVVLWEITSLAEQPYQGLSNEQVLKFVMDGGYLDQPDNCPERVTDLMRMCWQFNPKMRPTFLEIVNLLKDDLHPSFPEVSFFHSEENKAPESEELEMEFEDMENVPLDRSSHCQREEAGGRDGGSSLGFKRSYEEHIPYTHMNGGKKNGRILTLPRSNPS

KIT(V654A) = target: T8, KIT(V654A) (Homo sapiens, UniProt P10721, V654A); experiment: Cell free kinase inhibition assay; format: biochemical
T8 construct: purchased Carna Biosciences, Inc. (Kobe, Japan)
T8 sequence (P10721 26-976 V654A): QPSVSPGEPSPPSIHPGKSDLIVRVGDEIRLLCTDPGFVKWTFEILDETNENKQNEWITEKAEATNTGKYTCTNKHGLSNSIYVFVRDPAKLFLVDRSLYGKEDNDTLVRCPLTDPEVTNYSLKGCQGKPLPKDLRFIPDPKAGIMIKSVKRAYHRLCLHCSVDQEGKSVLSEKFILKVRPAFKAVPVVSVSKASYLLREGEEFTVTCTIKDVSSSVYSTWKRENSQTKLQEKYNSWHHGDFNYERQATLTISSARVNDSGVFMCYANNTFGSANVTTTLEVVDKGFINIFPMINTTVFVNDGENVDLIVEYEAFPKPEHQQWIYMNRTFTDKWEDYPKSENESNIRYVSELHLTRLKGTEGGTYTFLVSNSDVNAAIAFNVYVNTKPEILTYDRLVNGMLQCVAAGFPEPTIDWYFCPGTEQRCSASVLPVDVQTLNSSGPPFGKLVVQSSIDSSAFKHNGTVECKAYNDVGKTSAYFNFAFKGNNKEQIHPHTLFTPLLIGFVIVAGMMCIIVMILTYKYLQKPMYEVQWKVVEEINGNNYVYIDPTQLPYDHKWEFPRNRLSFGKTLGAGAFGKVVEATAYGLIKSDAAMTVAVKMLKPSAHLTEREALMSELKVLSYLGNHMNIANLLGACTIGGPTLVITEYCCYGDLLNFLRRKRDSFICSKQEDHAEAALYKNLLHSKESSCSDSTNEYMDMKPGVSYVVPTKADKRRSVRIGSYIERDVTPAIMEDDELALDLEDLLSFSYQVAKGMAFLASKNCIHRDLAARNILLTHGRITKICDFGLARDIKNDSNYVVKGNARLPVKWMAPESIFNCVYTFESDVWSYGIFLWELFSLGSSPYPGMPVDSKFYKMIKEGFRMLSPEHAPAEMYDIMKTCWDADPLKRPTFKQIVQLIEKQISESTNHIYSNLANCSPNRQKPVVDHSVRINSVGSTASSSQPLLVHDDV

BRK = target: T9, BRK (Homo sapiens, UniProt Q13882); experiment: Cell free kinase inhibition assay; format: biochemical
T9 construct: purchased Carna Biosciences, Inc. (Kobe, Japan)

AKT1 = target: T10, AKT1 (Homo sapiens, UniProt P31749); experiment: Cell free kinase inhibition assay; format: biochemical
T10 construct: purchased Carna Biosciences, Inc. (Kobe, Japan)
T10 sequence (P31749 whole entry): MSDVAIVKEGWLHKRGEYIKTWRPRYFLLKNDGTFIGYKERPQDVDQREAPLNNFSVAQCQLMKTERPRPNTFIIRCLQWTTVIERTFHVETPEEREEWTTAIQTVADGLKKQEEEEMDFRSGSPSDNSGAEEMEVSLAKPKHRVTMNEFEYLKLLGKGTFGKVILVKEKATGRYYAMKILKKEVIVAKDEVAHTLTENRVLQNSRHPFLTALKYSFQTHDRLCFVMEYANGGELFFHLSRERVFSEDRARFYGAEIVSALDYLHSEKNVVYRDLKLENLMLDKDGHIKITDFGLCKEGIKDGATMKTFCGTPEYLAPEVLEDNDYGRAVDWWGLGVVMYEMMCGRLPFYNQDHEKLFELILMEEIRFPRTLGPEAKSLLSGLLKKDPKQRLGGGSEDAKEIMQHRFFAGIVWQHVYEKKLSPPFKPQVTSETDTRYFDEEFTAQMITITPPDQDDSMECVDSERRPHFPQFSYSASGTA

GSK3β = target: T11, GSK3β (Homo sapiens, UniProt P49841); experiment: Cell free kinase inhibition assay; format: biochemical
T11 construct: purchased Carna Biosciences, Inc. (Kobe, Japan)
T11 sequence (P49841 whole entry): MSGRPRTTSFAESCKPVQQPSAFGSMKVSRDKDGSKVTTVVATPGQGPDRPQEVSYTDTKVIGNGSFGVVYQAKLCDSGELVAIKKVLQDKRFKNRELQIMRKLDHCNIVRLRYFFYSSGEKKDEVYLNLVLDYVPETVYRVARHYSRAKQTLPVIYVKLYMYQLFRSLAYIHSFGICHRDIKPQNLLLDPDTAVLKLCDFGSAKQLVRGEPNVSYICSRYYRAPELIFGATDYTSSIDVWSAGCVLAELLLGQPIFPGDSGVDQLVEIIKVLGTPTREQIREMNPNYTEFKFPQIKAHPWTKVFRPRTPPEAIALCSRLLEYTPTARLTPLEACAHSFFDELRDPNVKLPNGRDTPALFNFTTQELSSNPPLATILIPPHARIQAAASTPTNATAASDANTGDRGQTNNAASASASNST

RO82-W-1 xenograft = experiment: Human thyroid cancer xenograft model, tumor growth; format: in vivo, nude mice
Description: Nude mice (CAnN.Cg-Foxn1nu/CrlCrlj, female, 5-6 weeks old) were obtained from Charles River Laboratories Japan (Kanagawa, Japan). Mice were maintained under specific pathogen-free conditions and housed in barrier facilities on a 12 h light/dark cycle, with food and water ad libitum. All procedures using laboratory animals were done in accordance with all applicable institutional and government regulatory guidelines and policies and were performed in an animal facility accredited by the Center for Accreditation of Laboratory Animal Care of the Japan Health Sciences Foundation.
Tumor cells were cultured in appropriate culture mediums. Cells were harvested with 0.05% or 0.25% (w/v) trypsin/EDTA and suspended with 50% (v/v) BD Matrigel (BD Biosciences, San Jose, CA) in the mixture of culture mediums at a density of 5–10 × 10^7 cells/mL. Then, 0.1-0.2 mL of the cell suspension was inoculated subcutaneously into the right flank region of each mouse. […] The tumor size was measured in two dimensions by using a caliper, and the volume was calculated by using the formula: tumor volume (mm^3) = 1/2 length (mm) × [width (mm)]^2. The change in tumor volume in the treated group relative to that in the control group was calculated according to the following formula: ΔT/C = (ΔT/ΔC) × 100%, where ΔT and ΔC are the change in tumor volume (i.e., growth) for the treated and vehicle control group, respectively. The percentage of tumor growth inhibition (%TGI) was calculated from the formula: [(1 − ΔT/ΔC) × 100].
Supplementary Fig. S7 Comparison of antitumor activity with antiangiogenesis activity in human differentiated thyroid cancer RO82-W-1 xenografts in nude mice.
Nude mice bearing RO82-W-1 xenografts […]
when tumor volumes reached about 200 mm3 (day 1). The tumor volume was measured on day 22. Each group consisted of 6 mice. Data are shown as means ± SD. * P < 0.05 compared with vehicle-treated mice.
(b) The percentage of tumor growth inhibition (%TGI). Each group consisted of 6 mice. Antitumor activity was calculated as %TGI at day 22. Data are shown as means ± SD. * P < 0.05 compared […]
analyze the relationship between antitumor activity (%TGI) and antiangiogenesis activity (percentage of […]
sorafenib-treated groups were plotted on the X- and Y-axes, respectively. %TGI and %MVI was determined as described in Materials and Methods. Analysis of covariance (ANCOVA) for %TGI was examined by using %MVI as a covariate (P<0.05)

FTC-236 cells = experiment: Antiproliferation assay (WST-8); format: cell-based, human; conditions: Homo sapiens, 72 h; FTC-236 (DTC), antiproliferative, 3 days; read-out: IC50
FGFR3(K650E) = target: T12, FGFR3(K650E) (Homo sapiens, UniProt P22607, K650E); experiment: Cell free kinase inhibition assay; format: biochemical
T12 construct: purchased Carna Biosciences, Inc. (Kobe, Japan)

FAK = target: T13, FAK (Homo sapiens, UniProt Q05397); experiment: Cell free kinase inhibition assay; format: biochemical
T13 construct: purchased Carna Biosciences, Inc. (Kobe, Japan)

EPHB2 = target: T14, EPHB2 (Homo sapiens, UniProt P29323); experiment: Cell free kinase inhibition assay; format: biochemical
T14 construct: purchased Carna Biosciences, Inc. (Kobe, Japan)

HGK = target: T15, HGK (Homo sapiens, UniProt O95819); experiment: Cell free kinase inhibition assay; format: biochemical
T15 construct: purchased Carna Biosciences, Inc. (Kobe, Japan)

HER2 = target: T16, HER2 (Homo sapiens, UniProt P04626); experiment: Cell free kinase inhibition assay; format: biochemical
T16 construct: purchased Carna Biosciences, Inc. (Kobe, Japan)
T16 sequence (P04626 23-1255): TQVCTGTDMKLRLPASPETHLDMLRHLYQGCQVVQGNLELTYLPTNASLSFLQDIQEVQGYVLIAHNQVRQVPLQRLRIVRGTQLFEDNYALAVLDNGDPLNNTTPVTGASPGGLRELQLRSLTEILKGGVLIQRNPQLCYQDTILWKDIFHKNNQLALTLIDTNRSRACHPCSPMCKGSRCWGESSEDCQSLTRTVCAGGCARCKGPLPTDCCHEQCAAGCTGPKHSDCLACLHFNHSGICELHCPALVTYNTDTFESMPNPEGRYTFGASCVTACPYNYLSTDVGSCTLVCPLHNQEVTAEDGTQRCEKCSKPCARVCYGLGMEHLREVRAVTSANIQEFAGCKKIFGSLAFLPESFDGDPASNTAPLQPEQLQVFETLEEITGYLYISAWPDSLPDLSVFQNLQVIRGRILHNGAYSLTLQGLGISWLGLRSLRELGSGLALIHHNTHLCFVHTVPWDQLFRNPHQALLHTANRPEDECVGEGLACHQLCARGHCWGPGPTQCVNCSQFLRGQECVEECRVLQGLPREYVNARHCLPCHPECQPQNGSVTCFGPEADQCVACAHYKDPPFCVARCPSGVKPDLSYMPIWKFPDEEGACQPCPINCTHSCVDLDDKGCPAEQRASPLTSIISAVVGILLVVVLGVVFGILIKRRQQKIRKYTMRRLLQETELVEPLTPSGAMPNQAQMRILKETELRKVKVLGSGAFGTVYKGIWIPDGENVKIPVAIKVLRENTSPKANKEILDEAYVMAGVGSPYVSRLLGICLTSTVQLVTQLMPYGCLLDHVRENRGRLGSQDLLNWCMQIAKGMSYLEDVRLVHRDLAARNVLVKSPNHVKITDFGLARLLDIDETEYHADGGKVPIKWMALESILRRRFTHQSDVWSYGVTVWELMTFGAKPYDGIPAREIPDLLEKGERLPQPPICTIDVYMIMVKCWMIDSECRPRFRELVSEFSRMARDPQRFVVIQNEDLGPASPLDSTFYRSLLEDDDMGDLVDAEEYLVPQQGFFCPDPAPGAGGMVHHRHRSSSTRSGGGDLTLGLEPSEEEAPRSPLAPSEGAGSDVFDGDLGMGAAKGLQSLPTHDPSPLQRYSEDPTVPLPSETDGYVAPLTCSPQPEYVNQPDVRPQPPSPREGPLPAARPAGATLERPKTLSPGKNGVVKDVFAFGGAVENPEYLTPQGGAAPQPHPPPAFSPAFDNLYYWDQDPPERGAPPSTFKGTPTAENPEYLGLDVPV

FTC-238 cells = experiment: Antiproliferation assay (WST-8); format: cell-based, human; conditions: Homo sapiens, 72 h; FTC-238 (DTC), antiproliferative, 3 days
MLK1 = target: T17, MLK1 (Homo sapiens, UniProt P80192); experiment: Cell free kinase inhibition assay; format: biochemical
T17 construct: purchased Carna Biosciences, Inc. (Kobe, Japan)

IRAK4 = target: T18, IRAK4 (Homo sapiens, UniProt Q9NWZ3); experiment: Cell free kinase inhibition assay; format: biochemical
T18 construct: purchased Carna Biosciences, Inc. (Kobe, Japan)

COc1cc2nccc(Oc3ccc(NC(=O)NC4CC4)c(Cl)c3)c2cc1C(N)=O [Lenvatinib, Lenvatinib mesilate] was tested, and the “phosphorylation of FGFR1, FRS2, MEK, and ERK” value [1] was “inhibited the phosphorylation of FGFR1 and of FRS2, MEK, and ERK, in a concentration-dependent manner”, the IC50 (JAK2) was over 10 µM and the IC50 (p70S6K) was over 10 µM. For the same compound, the IC50 (MET) was 0.52 µM, the IC50 (CDK2/CycE1) was over 10 µM and the IC50 (FGFR4) was 0.043 µM. The IC50 (RAF1) was 1.6 µM, the IC50 (Nthy-ori 3-1 cells) was 15 µM and the IC50 (INSR) was over 10 µM. The IC50 (KIT(V654A)) was 0.52 µM, the IC50 (BRK) was 0.17 µM and the IC50 (AKT1) was over 10 µM. The IC50 (GSK3β) was over 10 µM, the antitumor activity (RO82-W-1 xenograft; RO82-W-1 xenograft, 1, 3, and 10 mg/kg oral once daily 14 days) was “significant antitumor activity” and the “antitumor activity compared with sorafenib (300 mg/kg)” value (RO82-W-1 xenograft; RO82-W-1 xenografts, 100 mg/kg oral once daily 21 days, %TGI day 22) was “significant potent antitumor activity”. For the same compound, the “antitumor activity (%TGI) normalized for angiogenesis inhibition (%MVI), versus sorafenib” value (RO82-W-1 xenograft; RO82-W-1 xenografts, ANCOVA) was “stronger antitumor activity”, the IC50 (FTC-236 cells) was 17 µM and the IC50 (FGFR3(K650E)) was 0.11 µM. It also gave an IC50 (FAK) of over 10 µM, an IC50 (EPHB2) of 0.66 µM and an IC50 (HGK) of 0.4 µM. The IC50 (HER2) was over 10 µM, the IC50 (FTC-238 cells) was 18 µM and the IC50 (MLK1) was over 10 µM. The IC50 (IRAK4) was over 10 µM.
